Laboratory results: patent publication US9675592B2, “Methods and compositions for bacteria infections” (priority 2013, dated 2017)
Read-outs that look alike come from different tables or passages of the source.

How the values were obtained:
[1] = test system: test strain 923 pPvra-lux; experiment: Secondary screen / synergy confirmation of Top 40, relative growth with oxacillin; type: cell-based, Staphylococcus aureus; details: Top 40 library, compound at maximum non-GI conc
Protocol: In the secondary screen each microtiter plate contained either cells in TSB alone (16 replicates), cells with oxacillin (2 μg/mL, 31 replicates), or cells with test compound and oxacillin (2 μg/mL, 49 wells). Each compound was assayed in four separate biological replicates.
Synergy Confirmation of “Top 40”. […]

[2] = test system: vraSR promoter (Pvra-lux reporter in strain 923); type: cell-based, Staphylococcus aureus; details: for RL Ox avg: Top 40 library, with oxacillin, compound at maximum non-GI conc; for vraSR repressing synergist: overall class from syn and rep
Protocol: In the secondary screen each microtiter plate contained either cells in TSB alone (16 replicates), cells with oxacillin (2 μg/mL, 31 replicates), or cells with test compound and oxacillin (2 μg/mL, 49 wells). Each compound was assayed in four separate biological replicates. […]

[3] = test system: test strain (923 pPvra-lux); experiment: Growth inhibition by compound alone (maximum non-growth-inhibitory concentration); type: cell-based, Staphylococcus aureus; details: compound alone; maximum concentration where it did NOT inhibit growth
[4] = test system: test strain 923 pPvra-lux (USA300 MRSA); experiment: Primary screen, relative growth in presence of oxacillin; details: compound 10 μM with oxacillin 2 μg/mL, absorbance 24 h, <0.50 = dead cells = hit
[5] = test system: vraSR promoter (Pvra-lux reporter in strain 923); experiment: Primary screen, relative luminescence (vraSR expression)
[6] = primary screen, compound 10 μM with oxacillin 2 μg/mL, <0.50 = vraSR repressed = hit

Row | Compound | RG Ox avg [1] | RL Ox avg [2] | vraSR repressing synergist [2] | maximum non-GI conc [3] [µg/mL] | RG avg (relative growth) [4] | RL avg (relative luminescence) [5, 6] | RL avg (relative luminescence) [5]
1 | Cc1ccc(S(=O)(=O)Nc2ccccc2C(=O)Nc2nc3c(Cl)ccc(Cl)c3s2)cc1 [F1813-0710] | 0.69 | 0.20 | 2. possible | 400 | −0.03 | 0.01 | –
2 | CN(C)CCCNc1cc(C(C)(C)C)nc2c(-c3ccc(Cl)cc3)cnn12 [F3348-0373] | 0.99 | 0.80 | 3. no effect | 40 | 0.05 | 0.41 | –
3 | O=S(=O)(Nc1cccc(-c2nc3ccccc3s2)c1)c1ccc(Cl)s1 [F2399-0063] | −0.01 | 0.04 | 1. confirmed | 400 | 0.28 | 0.12 | –
4 | Cc1nnsc1C(=O)Nc1nc(-c2cc3ccccc3o2)cs1 [F2962-0176] | 0.04 | 0.01 | 1. confirmed | 400 | 0.06 | −0.08 | –
5 | Cc1ccc(Nc2nc(N3CCN(Cc4ccccc4)CC3)nc3nccnc23)cc1C [F2359-0308] | 0.01 | 0.01 | 1. confirmed | 400 | 0.22 | 0.07 | –
6 | O=C(Nc1nnc(C2=COCCO2)o1)c1cccc(Br)c1 [F0608-0146] | 0.96 | 1.11 | 3. no effect | 40 | −0.05 | −0.12 | –
7 | O=C(Nc1nnc(-c2ccccc2Cl)o1)c1ccc2ccccc2c1 [F1374-0082] | 0.67 | 0.08 | 2. possible | 40 | 0.08 | 0.35 | –
8 | O=C(Nc1ccc(OC(F)(F)F)cc1)N1CCN(c2cc(N3CCCC3)ncn2)CC1 [F5669-0378] | 1.00 | 0.71 | 3. no effect | 40 | −0.02 | −0.06 | –
9 | Cc1ccc(S(=O)(=O)Nc2ccccc2C(=O)Nc2nc3c(C)ccc(Cl)c3s2)cc1 [F1813-0711] | 0.85 | 0.43 | 2. possible | 400 | −0.02 | – | −0.02
10 | CN1CCN(c2nc(Nc3ccc(SC(F)F)cc3)c3cnn(-c4ccccc4)c3n2)CC1 [F2090-0579] | 0.30 | 0.11 | 1. confirmed | 400 | 0.00 | 0.04 | –
11 | CSc1cccc2sc(NC(=O)c3ccccc3NS(=O)(=O)c3ccc(C)cc3)nc12 [F2730-0247] | 0.23 | 0.15 | 1. confirmed | 400 | 0.31 | 0.16 | –
12 | Fc1ccc(-c2csc3ncnc(Sc4nnnn4-c4ccccc4)c23)cc1 [F1142-4245] | 0.25 | 0.04 | 1. confirmed | 400 | 0.03 | 0.36 | –
13 | Clc1ccc(-c2csc3ncnc(Sc4nnnn4-c4ccccc4)c23)cc1 [F1142-4597] | 0.08 | −0.01 | 1. confirmed | 40 | 0.03 | 0.37 | –
14 | O=C(Nc1ccc2c(c1)OCO2)Nc1nc(-c2ccccn2)cs1 [F5772-8284] | 0.37 | 0.52 | 2. possible | 400 | 0.37 | −0.01 | –
15 | O=C(Nc1cccc(C(F)(F)F)c1)N1CCN(c2ccc3nncn3n2)CC1 [F5123-0084] | 1.08 | 0.67 | 3. no effect | 40 | 0.02 | −0.08 | –
